In patent publication US20230203098A1, “HUMAN TRANSFERRIN RECEPTOR BINDING PEPTIDE” (priority 2020, published 2023):
Where two headings read alike, the source gives them in different places. Where a SMILES comes first, the peptide text is derived from it. Bridges are numbered along the chain shown (N, C = ends). [ ]: non-standard residue; d: D form. NMePhe(3-Cl) = CN[C@@H](Cc1cccc(Cl)c1)C(=O)O; NMeW = CN[C@@H](Cc1c[nH]c2ccccc12)C(=O)O; NMeY = CN[C@@H](Cc1ccc(O)cc1)C(=O)O; Ahp(2) = CCCCC[C@H](N)C(=O)O; PEG4 = NCCOCCOCCOCCOCCC(=O)O; hLys = NCCCCC[C@H](N)C(=O)O; dOrn = NCCC[C@@H](N)C(=O)O; Dab = NCC[C@H](N)C(=O)O; Dap = NC[C@H](N)C(=O)O

Biological target: transferrin receptor (hTfR) (Homo sapiens, UniProt P02786)
Assay: Intermolecular interaction evaluation test between transferrin receptor (hTfR) and peptide by surface plasmon resonance (SPR)
Format: binding
Method in brief: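 hTfR captured on Ni-NTA chip then amine-coupled; peptides run single-cycle kinetics at 5–100 nM in 10 mM HEPES pH 8.0, 150 mM NaCl, 0.05% Tween 20, 0.1% BSA, 1.0% DMSO. KD from least-squares curve fitting of sensorgrams.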

[1] = surface plasmon resonance, hTfR, read-out: KD value for hTfR by SPR (class symbol)

transferrin receptor (hTfR), sequence (P02786 whole entry): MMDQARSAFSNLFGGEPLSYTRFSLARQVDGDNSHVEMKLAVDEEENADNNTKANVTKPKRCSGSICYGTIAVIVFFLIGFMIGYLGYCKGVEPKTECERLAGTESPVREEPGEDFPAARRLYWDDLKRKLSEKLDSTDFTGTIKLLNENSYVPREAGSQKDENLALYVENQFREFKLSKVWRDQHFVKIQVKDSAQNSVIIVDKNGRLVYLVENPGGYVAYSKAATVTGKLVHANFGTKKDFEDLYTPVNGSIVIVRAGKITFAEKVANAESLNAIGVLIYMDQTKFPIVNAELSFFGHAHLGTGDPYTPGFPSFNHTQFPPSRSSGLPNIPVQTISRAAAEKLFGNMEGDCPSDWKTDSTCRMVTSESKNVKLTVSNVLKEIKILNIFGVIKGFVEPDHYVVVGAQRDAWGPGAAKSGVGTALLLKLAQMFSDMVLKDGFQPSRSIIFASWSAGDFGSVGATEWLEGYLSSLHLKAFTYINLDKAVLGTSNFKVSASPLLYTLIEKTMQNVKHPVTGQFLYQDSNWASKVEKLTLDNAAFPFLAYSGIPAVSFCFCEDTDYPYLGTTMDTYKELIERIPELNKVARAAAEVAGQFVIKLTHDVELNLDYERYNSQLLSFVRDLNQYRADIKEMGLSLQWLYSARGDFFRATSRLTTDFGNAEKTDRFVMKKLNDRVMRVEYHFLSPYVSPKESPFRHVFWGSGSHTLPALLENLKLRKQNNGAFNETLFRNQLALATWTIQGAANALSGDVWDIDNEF

| SMILES | Kd [1] [nM] | Kd [nM] |
| --- | --- | --- |
| CCCCC[C@@H]1NC(=O)[C@H]([C@@H](C)CC)NC(=O)[C@H]([C@@H](C)CC)NC(=O)[C@H](Cc2ccc(OC)cc2)NC(=O)[C@H](Cc2ccc(O)cc2)NC(=O)[C@H](CC(N)=O)NC(=O)[C@H](Cc2c[nH]c3ccccc23)N(C)C(=O)[C@H](C(C)C)NC(=O)[C@H](Cc2cccc(Cl)c2)N(C)C(=O)[C@H](C(C)C)NC(=O)[C@H](C)NC(=O)CSC[C@@H](C(=O)NCCOCCOCCOCCOCCC(N)=O)NC(=O)[C@H](Cc2ccc(O)cc2)N(C)C(=O)[C@H](Cc2ccccc2)NC(=O)[C@@H](CCCNC(=N)N)NC1=O [compound 362] ({CH2CO}-AV[NMePhe(3-Cl)]V[NMeW]NYY(Me)II[Ahp(2)][dR]F[NMeY]C[PEG4]-NH2; thioether N-15) | 1 to 100 | – |
| CC[C@H](C)[C@@H]1NC(=O)[C@H](Cc2ccc(OC)cc2)NC(=O)[C@H](Cc2ccc(O)cc2)NC(=O)[C@H](CC(N)=O)NC(=O)[C@H](Cc2c[nH]c3ccccc23)N(C)C(=O)[C@H](C(C)C)NC(=O)[C@H](Cc2cccc(Cl)c2)N(C)C(=O)[C@H](C(C)C)NC(=O)[C@H](C)NC(=O)CSC[C@@H](C(N)=O)NC(=O)[C@H](Cc2ccc(O)cc2)N(C)C(=O)[C@H](Cc2ccccc2)NC(=O)[C@@H](CCCNC(=N)N)NC(=O)[C@H](CCC(=O)NCCOCCOCCOCCOCCOCCOCCOCCOC)NC(=O)[C@H]([C@@H](C)CC)NC1=O [compound 363] | 1 to 100 | – |
| CC[C@H](C)[C@@H]1NC(=O)[C@H](Cc2ccc(OC)cc2)NC(=O)[C@H](Cc2ccc(O)cc2)NC(=O)[C@H](CC(N)=O)NC(=O)[C@H](Cc2c[nH]c3ccccc23)N(C)C(=O)[C@H](C(C)C)NC(=O)[C@H](Cc2cccc(Cl)c2)N(C)C(=O)[C@H](C(C)C)NC(=O)[C@H](C)NC(=O)CSC[C@@H](C(N)=O)NC(=O)[C@H](Cc2ccc(O)cc2)N(C)C(=O)[C@H](Cc2ccccc2)NC(=O)[C@@H](CCCNC(=N)N)NC(=O)C2(CCN(C)CC2)NC(=O)[C@H]([C@@H](C)CC)NC1=O [compound 364] | 1 to 100 | – |
| CC[C@H](C)[C@@H]1NC(=O)[C@H](Cc2ccc(OC)cc2)NC(=O)[C@H](Cc2ccc(O)cc2)NC(=O)[C@H](CC(N)=O)NC(=O)[C@H](Cc2c[nH]c3ccccc23)N(C)C(=O)[C@H](C(C)C)NC(=O)[C@H](Cc2cccc(Cl)c2)N(C)C(=O)[C@H](C(C)C)NC(=O)[C@H](C)NC(=O)CSC[C@@H](C(=O)NCCOCCOCCOCCOCCC(N)=O)NC(=O)[C@H](Cc2ccc(O)cc2)N(C)C(=O)[C@H](Cc2ccccc2)NC(=O)[C@@H](CCCNC(=N)N)NC(=O)[C@H](CN)NC(=O)[C@H]([C@@H](C)CC)NC1=O [compound 365] ({CH2CO}-AV[NMePhe(3-Cl)]V[NMeW]NYY(Me)II[Dap][dR]F[NMeY]C[PEG4]-NH2; thioether N-15) | 1 to 100 | – |
| CC[C@H](C)[C@@H]1NC(=O)[C@H](Cc2ccc(OC)cc2)NC(=O)[C@H](Cc2ccc(O)cc2)NC(=O)[C@H](CC(N)=O)NC(=O)[C@H](Cc2c[nH]c3ccccc23)N(C)C(=O)[C@H](C(C)C)NC(=O)[C@H](Cc2cccc(Cl)c2)N(C)C(=O)[C@H](C(C)C)NC(=O)[C@H](C)NC(=O)CSC[C@@H](C(=O)NCCOCCOCCOCCOCCC(N)=O)NC(=O)[C@H](Cc2ccc(O)cc2)N(C)C(=O)[C@H](Cc2ccccc2)NC(=O)[C@@H](CCCNC(=N)N)NC(=O)[C@H](CCN)NC(=O)[C@H]([C@@H](C)CC)NC1=O [compound 366] ({CH2CO}-AV[NMePhe(3-Cl)]V[NMeW]NYY(Me)II[Dab][dR]F[NMeY]C[PEG4]-NH2; thioether N-15) | 1 to 100 | – |
| CC[C@H](C)[C@@H]1NC(=O)[C@H](Cc2ccc(OC)cc2)NC(=O)[C@H](Cc2ccc(O)cc2)NC(=O)[C@H](CC(N)=O)NC(=O)[C@H](Cc2c[nH]c3ccccc23)N(C)C(=O)[C@H](C(C)C)NC(=O)[C@H](Cc2cccc(Cl)c2)N(C)C(=O)[C@H](C(C)C)NC(=O)[C@H](C)NC(=O)CSC[C@@H](C(=O)NCC(=O)NCC(=O)NCC(=O)NCC(=O)N[C@@H](CO)C(=O)N[C@@H](CO)C(=O)N[C@@H](CS)C(N)=O)NC(=O)[C@H](Cc2ccc(O)cc2)N(C)C(=O)[C@H](Cc2ccccc2)NC(=O)[C@@H](CCCNC(=N)N)NC(=O)[C@H](CN)NC(=O)[C@H]([C@@H](C)CC)NC1=O [compound 367] | – | 1 to 100 |
| CC[C@H](C)[C@@H]1NC(=O)[C@H](Cc2ccc(OC)cc2)NC(=O)[C@H](Cc2ccc(O)cc2)NC(=O)[C@H](CC(N)=O)NC(=O)[C@H](Cc2c[nH]c3ccccc23)N(C)C(=O)[C@H](C(C)C)NC(=O)[C@H](Cc2cccc(Cl)c2)N(C)C(=O)[C@H](C(C)C)NC(=O)[C@H](C)NC(=O)CSC[C@@H](C(=O)NCCOCCOCCOCCOCCC(N)=O)NC(=O)[C@H](Cc2ccc(O)cc2)N(C)C(=O)[C@H](Cc2ccccc2)NC(=O)[C@@H](CCCNC(=N)N)NC(=O)[C@@H](CCCN)NC(=O)[C@H]([C@@H](C)CC)NC1=O [compound 368] ({CH2CO}-AV[NMePhe(3-Cl)]V[NMeW]NYY(Me)II[dOrn][dR]F[NMeY]C[PEG4]-NH2; thioether N-15) | 1 to 100 | – |
| CC[C@H](C)[C@@H]1NC(=O)[C@H](Cc2ccc(OC)cc2)NC(=O)[C@H](Cc2ccc(O)cc2)NC(=O)[C@H](CC(N)=O)NC(=O)[C@H](Cc2c[nH]c3ccccc23)N(C)C(=O)[C@H](C(C)C)NC(=O)[C@H](Cc2cccc(Cl)c2)N(C)C(=O)[C@H](C(C)C)NC(=O)[C@H](C)NC(=O)CSC[C@@H](C(=O)NCCOCCOCCOCCOCCC(N)=O)NC(=O)[C@H](Cc2ccc(O)cc2)N(C)C(=O)[C@H](Cc2ccccc2)NC(=O)[C@@H](CCCNC(=N)N)NC(=O)[C@H](CCCCCN)NC(=O)[C@H]([C@@H](C)CC)NC1=O [compound 369] ({CH2CO}-AV[NMePhe(3-Cl)]V[NMeW]NYY(Me)II[hLys][dR]F[NMeY]C[PEG4]-NH2; thioether N-15) | 1 to 100 | – |
| CC[C@H](C)[C@@H]1NC(=O)[C@H](Cc2ccc(OC)cc2)NC(=O)[C@H](Cc2ccc(O)cc2)NC(=O)[C@H](CC(N)=O)NC(=O)[C@H](Cc2c[nH]c3ccccc23)N(C)C(=O)[C@H](C(C)C)NC(=O)[C@H](Cc2cccc(Cl)c2)N(C)C(=O)[C@H](C(C)C)NC(=O)[C@H](C)NC(=O)CSC[C@@H](C(=O)NCC(=O)NCC(=O)NCC(=O)NCC(=O)N[C@@H](CO)C(=O)N[C@@H](CO)C(=O)N[C@@H](CS)C(N)=O)NC(=O)[C@H](Cc2ccc(O)cc2)N(C)C(=O)[C@H](Cc2ccccc2)NC(=O)[C@@H](CCCNC(=N)N)NC(=O)[C@H](CCCCCN)NC(=O)[C@H]([C@@H](C)CC)NC1=O [compound 370] | – | 1 to 100 |
| CC[C@H](C)[C@@H]1NC(=O)[C@H](Cc2ccc(OC)cc2)NC(=O)[C@H](Cc2ccc(O)cc2)NC(=O)[C@H](CC(N)=O)NC(=O)[C@H](Cc2c[nH]c3ccccc23)N(C)C(=O)[C@H](C(C)C)NC(=O)[C@H](Cc2cccc(Cl)c2)N(C)C(=O)[C@H](C(C)C)NC(=O)[C@H](C)NC(=O)CSC[C@@H](C(N)=O)NC(=O)[C@H](Cc2ccc(O)cc2)N(C)C(=O)[C@H](Cc2ccccc2)NC(=O)[C@H](CCCNC(=N)N)NC(=O)[C@H](CCCCN)NC(=O)[C@H]([C@@H](C)CC)NC1=O [compound 371] | < 1 | – |
| CC[C@H](C)[C@@H]1NC(=O)[C@H](Cc2ccc(OC)cc2)NC(=O)[C@H](Cc2ccc(O)cc2)NC(=O)[C@H](CC(N)=O)NC(=O)[C@H](Cc2c[nH]c3ccccc23)N(C)C(=O)[C@H](C(C)C)NC(=O)[C@H](Cc2cccc(Cl)c2)N(C)C(=O)[C@H](C(C)C)NC(=O)[C@H](C)NC(=O)CSC[C@@H](C(N)=O)NC(=O)[C@H](Cc2ccc(O)cc2)N(C)C(=O)[C@H](Cc2ccccc2)NC(=O)[C@@H](C)NC(=O)[C@H](CCCCN)NC(=O)[C@H]([C@@H](C)CC)NC1=O [compound 372] | 1 to 100 | – |
